Results as given in publication PMC6192554, “In vitro toxicity and efficacy of verdinexor, an exportin 1 inhibitor, on opportunistic viruses affecting immunocompromised individuals” (PLoS ONE, 2018).
pEC50, pIC50: −log10 of the molar value.

Tests used:
[1] = system: Human adenovirus type 5; assay: Adenovirus virus yield (TCID50) assay in HeLa cells; format: cell-based; details: Human mastadenovirus C
Procedure: Human adenovirus type 5 was obtained from ATCC and cultured in HeLa cells under standard conditions.
Prior to assessing cell viability using MTS, supernatants were collected from plates and titrated to determine virus yield. Serial dilutions of supernatants were incubated on HeLa cells for 3 days. Following incubation, wells were visually scored for infection and TCID50, EC50, CC50 and SI were calculated for each sample.

[2] = Cytotoxicity in HFF cells, concurrent with HCMV assays; format: cell-based; details: human, human foreskin fibroblast cells (HFF)
Procedure: (§1) Cytotoxicity assays: Concurrent assessment of cytotoxicity was also performed for each study in the same cell line and with the same compound exposure.
For HCMV cytotoxicity assay was determined via neutral red uptake assay and was conducted as reported previously in HFF cells. Optical densities were determined at 550nm.
Yield reduction assays for HCMV were performed on monolayers of HFF cells prepared in 96-well plates and incubated at 37°C for 1d to allow the cells to reach confluency. Media was then aspirated from the wells were infected at a high multiplicity of infection (MOI). At 1h following infection, the inocula were removed and the monolayers rinsed with fresh media. Compounds were then diluted in assay media consisting of MEM with Earl’s salts supplemented with 2% FBS, L-glutamine, penicillin, and gentamycin. Solutions ranging from 0.0032–10μM in primary assay and 0.032–100μM in secondary assay were added to the wells and the plates were incubated for various times, depending on the virus used and represents the length of a single replication cycle for the virus. A duplicate set of dilutions were also performed but remained uninfected to serve as a cytotoxicity control and received equal compound exposure. Supernatants from each of the infected wells were subsequently titered in a TCID50 assay to quantify the progeny virus. […]

[3] = Serum protein binding; format: in vitro ADME; details: human, humans
Procedure: Serum concentrations with Verdinexor have been previously established in in vivo models of influenza in both mice and ferrets. In mice receiving 10mg/kg and ferrets receiving 5mg/kg, max plasma concentration of verdinexor was approximately 1200 (ng/mL) however, the half life in mice was extended (6 hours) as compared to that of ferrets (2 hours). Serum protein binding of verdinexor in humans is 98.4%. […] A Phase 1, Randomized, Double-Blind, Placebo-Controlled, Sequential, Dose-Escalating Trial to Evaluate the Safety and Tolerability of Oral Verdinexor (KPT-335) in Healthy Adult Subjects was conducted in Nucleus Network, Melbourne, Victoria, Australia [ClinicalTrials.gov: NCT02431364]. No study results are currently posted for this study. Furthermore, a clinical study was submitted to the USA FDA on IND#122718. This phase 1a, Randomized, Double-Blind, Placebo-Controlled, Sequential, Dose-Escalating Trial of Single and Multi-Dose oral verdinexor (KPT-335) to Evaluate the Safety and Tolerability in Healthy Elderly Volunteers is yet to be initiated and recruit subjects.

[4] = Cytotoxicity in Akata cells (CellTiter-Glo), concurrent with EBV assays; format: cell-based; details: human
Procedure: (§2) Cytotoxicity assays: Concurrent assessment of cytotoxicity was also performed for each study in the same cell line and with the same compound exposure. For KSHV, cell viability was assessed with the CellTiter-Glo Luminescent Cell Viability Assay (Promega) using manufacturer’s protocol. Luminescence was quantified on a luminometer. Standard methods were used to calculate the 50% cytotoxic level (CC50). Cytotoxicity assay was performed in a manner analogous to KSHV (see above).

[5] = Cytotoxicity in primary human keratinocytes (PHK); format: cell-based; details: HPV-18 secondary screen, PHKs
Procedure: as §1
HPV cytotoxicity assay was performed at the time of viral harvest by scoring cells in a BioRad Automatic Cell Counter for cell viability.
For secondary assays, the amplification of HPV-18 DNA was determined in an organotypic squamous epithelial raft culture of PHKs. Whole genomic HPV-18 plasmids were generated in plasmid-transfected PHKs and developed into organotypic cultures as described. Based on the results of a 3-day toxicity assay, concentrations of test compound were added to a subset of raft cultures from day 6 through day 13 when the cultures were harvested. Similarly treated normal PHK raft cultures were also prepared to assess toxicity of uninfected tissue. One set of cultures were fixed in 10% buffered formalin, paraffin embedded and sectioned for in situ assay. Sections were stained with hematoxylin and eosin. Total DNA harvest from unfixed raft cultures was used to determine the HPV-18 copy number/per cell by qPCR. Inhibition was expressed as % of viral DNA copies relative to the untreated cultures.

[6] = system: diverse panel of viruses; assay: Broad antiviral screening, summary over all viruses; format: cell-based; details: across the panel of viruses; read-out: median EC50
Procedure: Each assay was performed in triplicate in 2 independent assays. In some cases different assays were used for the secondary screen, as alternate experimental procedures are able to measure differential effects on the viral life cycle (ie. qPCR for genome replication, plaque reduction for replication, assembly and release, etc.).

[7] = system: Epstein-Barr virus (EBV) Akata strain; assay: EBV secondary assay, qPCR of viral DNA in induced Akata cells; format: cell-based
Procedure: EBV Akata strain was assayed in Akata cells (John Sixbey, LSU) latently infected with EBV (and therefore oncogenic). Cells were maintained in RPMI 1640, (Mediatech) with 10% FBS (Hyclone), L-glutamine, penicillin and gentamicin.
Secondary assay for EBV were performed in Akata cells that were induced to undergo a lytic infection with 50μg/ml of a goat anti-human IgG antibody by methods we reported previously. Experimental compounds were diluted in round bottom 96-well plates to yield concentrations ranging from 0.0032–100μM. Akata cells were added to the plates at a concentration of 4×10^4 cells per well and […]. Assay plates were incubated for seven days at 37°C. For all assays, the replication of the virus was assessed by the quantification of viral DNA. For primer sequences, please see S1 Table. EBV DNA was purified according to manufacturer’s instructions (Wizard SV 96 Genomic DNA Purification System). The purified DNA was then subjected to qPCR that amplified a fragment corresponding to nucleotides 96802–97234 in the EBV genome (AJ507799). Plasmid pMP218 containing a DNA sequences corresponding to nucleotides 14120–14182 (AF148805.2) was used to provide absolute quantification of viral DNA. Compound concentrations sufficient to reduce genome copy number by 50% were calculated from experimental data.

[8] = Cytotoxicity in HFF cells, concurrent with BKPyV assays; format: cell-based; details: human
Procedure: as §2, with “above.” for “(see above).”

[9] = target: T1, histamine H1 receptor (Homo sapiens, UniProt P35367); assay: Histamine H1 receptor binding (off-target panel); details: Study No. KS-1016 and PE-50946871
[10] = target: T1, histamine H1 receptor; assay: Histamine H1 receptor functional activity assay, agonist; format: biochemical; details: Study No. KS-1017, read-out: IC50 (50% inhibitory concentration)

T1 sequence (P35367 whole entry, species assumed): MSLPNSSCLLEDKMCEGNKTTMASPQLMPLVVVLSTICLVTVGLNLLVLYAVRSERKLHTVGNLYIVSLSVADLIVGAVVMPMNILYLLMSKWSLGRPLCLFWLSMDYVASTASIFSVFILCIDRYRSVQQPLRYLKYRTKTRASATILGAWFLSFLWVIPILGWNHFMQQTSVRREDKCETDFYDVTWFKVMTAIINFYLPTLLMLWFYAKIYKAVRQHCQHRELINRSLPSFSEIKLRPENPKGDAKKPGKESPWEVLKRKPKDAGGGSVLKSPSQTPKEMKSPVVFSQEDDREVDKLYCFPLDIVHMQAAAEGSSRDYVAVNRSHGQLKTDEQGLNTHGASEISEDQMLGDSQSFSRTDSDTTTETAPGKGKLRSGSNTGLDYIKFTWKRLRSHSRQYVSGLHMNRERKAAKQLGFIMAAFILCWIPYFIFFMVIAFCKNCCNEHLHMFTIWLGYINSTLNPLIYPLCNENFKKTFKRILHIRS

O=C(C=Cn1cnc(-c2cc(C(F)(F)F)cc(C(F)(F)F)c2)n1)NNc1ccccn1 (stereo in doubt) [verdinexor, (E)-3-[3-[3,5-bis(trifluoromethyl)phenyl]-1,2,4-triazol-1-yl]-N'-pyridin-2-ylprop-2-enehydrazide]
pEC50 ([1]; Ad5, primary screen): < 6.74 | pEC50 ([1]; Ad5, secondary screen): > 7.52 | CC50 ([2]; HCMV primary screen): 1.76 µM | CC50 ([2]; HCMV secondary screen): 73.3 µM | fraction unbound [3]: 0.016 | CC50 ([4]; EBV assays): < 0.68 µM | CC50 ([4]; EBV primary screen): 0.68 µM | CC50 ([4]; EBV secondary screen): 0.34 µM | CC50 [5]: 8.3 µM | pEC50 [6]: 5.70 | SI (Selectivity Index, CC50/EC50) ([7]; EBV, secondary screen, qPCR): 7 | pEC50 ([7]; human gammaherpesvirus 4, Akata): 7.30 | CC50 ([8]; BKPyV primary screen): 10 µM | CC50 ([8]; BKPyV secondary screen): 9.38 µM | inhibition at 10 µM [9]: 33% | pIC50 [10]: < 5.00
